# Results: patent US20220017516A1, “LOX INHIBITORS” (THE INSTITUTE OF CANCER RESEARCH: ROYAL CANCER HOSPITAL, priority 2018, published 2022)
# Like-named read-outs stand apart in the source and are kept apart here.
# How the values were obtained:
# LOX = target: T1, LOX (Sus scrofa, UniProt P45845); experiment: LOX isoform activity assay (ROS Glo), LOX; format: biochemical, pig; conditions: 1 h incubation with enzyme
# T1 construct: LOX was extracted from pig skin by previously described methods; from tissue; host or cells: pig skin
# T1 sequence (P45845 1-249): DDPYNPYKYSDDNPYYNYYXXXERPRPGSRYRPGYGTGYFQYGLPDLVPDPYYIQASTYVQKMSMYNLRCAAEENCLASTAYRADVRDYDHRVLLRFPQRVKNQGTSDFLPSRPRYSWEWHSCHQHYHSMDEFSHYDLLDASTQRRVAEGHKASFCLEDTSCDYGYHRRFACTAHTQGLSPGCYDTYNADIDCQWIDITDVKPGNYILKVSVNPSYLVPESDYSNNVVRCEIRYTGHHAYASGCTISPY
# Procedure: (§1) LOX was extracted from pig skin by previously described methods (Shackleton and Hulmes, 1990). LOXL2 and LOXL3 were obtained from R&D Systems/Bio-techne. The Promega ROS Glo assay kit (G8821) was used to assess enzyme activity. Overall, test compound was added to either 384 well assay plates (Greiner) using a Labcyte Echo™ Acoustic Handler or to 96 well plates for a final assay concentration of 100, 30, 10, 3, 1, 0.3, 0.1, 0.03, 0.01 and 0.003 μM final assay concentration. Enzymes were diluted according to specific pre-determined activity in assay buffer (100 mM CHES, pH 9, 0.05% (w/v) pluronic F-127, 0.5% (w/v) BSA, 1 mM MgCl2, 1 M urea, 100 mM NaCl) and added to the plate. For LOXL2, the mixture was incubated for 20 min, 1 h or 20 h; for LOX and LOXL3, incubation time was 1 h. Cadaverine and H2O2 substrate were then added to each well (final assay concentration 19.56 mM and 25 μM respectively) and the plates were incubated for 1.5 h (for LOX) or 1 h (for LOXL2 and LOXL3) at room temperature. Finally, luciferin detection reagent was added and plates were incubated for 20 min at room temperature, protected from light. Luminescence was measured using a BMG LABTECH PHERAstar FS reader and resulting IC50 values were calculated using GraphPad Prism software.
# LOXL2 = target: T2, LOXL2 (Homo sapiens, UniProt Q9Y4K0); experiment: LOX isoform activity assay (ROS Glo), LOXL2; format: biochemical
# T2 construct: purchased R&D Systems/Bio-techne
# T2 sequence (Q9Y4K0 26-774): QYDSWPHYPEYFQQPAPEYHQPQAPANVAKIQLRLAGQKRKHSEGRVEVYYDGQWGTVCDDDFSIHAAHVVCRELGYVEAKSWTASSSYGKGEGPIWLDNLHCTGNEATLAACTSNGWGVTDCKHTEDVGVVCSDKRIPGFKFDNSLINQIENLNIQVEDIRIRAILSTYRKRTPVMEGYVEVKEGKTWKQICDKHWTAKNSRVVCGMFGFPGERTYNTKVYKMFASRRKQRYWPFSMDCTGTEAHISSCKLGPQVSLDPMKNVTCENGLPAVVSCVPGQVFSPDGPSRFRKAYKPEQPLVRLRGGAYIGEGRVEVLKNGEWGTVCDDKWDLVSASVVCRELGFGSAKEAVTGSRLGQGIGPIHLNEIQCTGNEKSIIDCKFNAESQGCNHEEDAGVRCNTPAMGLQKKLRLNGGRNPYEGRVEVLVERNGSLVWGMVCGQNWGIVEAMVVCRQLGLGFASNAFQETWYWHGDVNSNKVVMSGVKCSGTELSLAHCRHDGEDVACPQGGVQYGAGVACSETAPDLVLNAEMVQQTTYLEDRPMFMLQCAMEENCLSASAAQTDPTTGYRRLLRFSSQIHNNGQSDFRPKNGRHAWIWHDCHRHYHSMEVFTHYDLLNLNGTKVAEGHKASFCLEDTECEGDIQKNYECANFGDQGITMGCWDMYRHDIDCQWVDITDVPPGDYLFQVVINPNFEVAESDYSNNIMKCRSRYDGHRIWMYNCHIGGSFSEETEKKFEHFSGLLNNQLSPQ
# Procedure: as §1
# In another setting, LOXL2 enzyme was diluted according to specific pre-determined activity in assay buffer (100 mM CHES, pH 9, 0.05% (w/v) pluronic F-127, 0.5% (w/v) BSA, 1 mM MgCl2, 1 M urea, 100 mM NaCl). Overall, 0.5 μl test compound was added to 40 μl assay buffer+LOXL2 at 100, 30, 10, 3, 1, 0.3, 0.1, 0.03, 0.01 and 0.003 μM (final concentration) in a 96-well white polystyrene, flat bottom plates (Fisher) and incubated for the indicated time at room temperature. 10 μl of assay buffer containing 97.8 mM cadaverine and 125 μM H2O2 substrate (final assay concentration 19.56 mM and 25 μM respectively) were added to each well and plates were incubated for 1 h at room temperature. Finally, 50 μl per well luciferin detection reagent was added and plates were incubated for 20 min at room temperature, protected from light. Luminescence was measured with an integration time of 500 ms per well using a SpectaMax M5 plate reader and resulting IC50 values were calculated using GraphPad Prism software.
# [1] = target: T3, monoamine oxidase A (MAO-A) (Homo sapiens, UniProt P21397); experiment: Amine oxidase activity assay (MAO-Glo), MAO-A; format: biochemical
# T3 construct: purchased Promega V1452
# T3 sequence (P21397 1-527): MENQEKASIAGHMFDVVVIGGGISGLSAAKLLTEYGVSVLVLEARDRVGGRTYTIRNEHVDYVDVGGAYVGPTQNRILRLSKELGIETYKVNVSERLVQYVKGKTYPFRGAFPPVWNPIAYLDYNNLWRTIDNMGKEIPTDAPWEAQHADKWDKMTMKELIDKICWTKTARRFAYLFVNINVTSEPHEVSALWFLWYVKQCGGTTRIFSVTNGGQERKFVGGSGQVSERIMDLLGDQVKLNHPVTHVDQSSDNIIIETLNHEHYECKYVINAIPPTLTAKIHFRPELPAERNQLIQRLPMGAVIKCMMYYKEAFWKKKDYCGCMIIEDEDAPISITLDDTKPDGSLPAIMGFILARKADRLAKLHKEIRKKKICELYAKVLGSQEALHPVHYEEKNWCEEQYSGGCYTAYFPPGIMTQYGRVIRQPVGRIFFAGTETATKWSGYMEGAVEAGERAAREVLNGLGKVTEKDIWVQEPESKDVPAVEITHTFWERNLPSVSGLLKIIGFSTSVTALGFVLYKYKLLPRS
# Procedure: (§2) The Promega MAO-Glo assay kit (V1402) was used to assess monoamine oxidase A (MAO-A) and monoamine oxidase B (MAO-B) activity. MAO substrate was prepared at 80 μM with the specific MAO-A/B reaction buffer. Overall, 0.5 μl test compound was added to 25 μl MAO substrate at 100, 30, 10, 3, 1, 0.3, 0.1, 0.03, 0.01 and 0.003 μM (final concentration) in a 96-well white, flat bottom plate. Overall, 25 μl of 1:520 dilution of MAO-A enzyme (Promega, V1452) or 25 μl of 1:52 dilution of MAO-B enzyme (Sigma, M7441) in specific MAO-A/B reaction buffer was added to each well (enzyme prepared at 2×final concentration) and plates were incubated for 1 h at room temperature. Finally, 50 μl per well luciferin detection reagent was added and plates were incubated for 20 min at room temperature, protected from light. Luminescence was measured with an integration time of 500 ms per well using a SpectaMax M5 plate reader and resulting IC50 values were calculated using GraphPad Prism software.
# (§3) In another setting, the DAO and MAO assays were performed in 384-well plates (Greiner) and test compound was added using a Labcyte Echo™ Acoustic Handler for the same final concentrations as in the 96-well setting. Luminescence was measured with BMG LABTECH PHERAstar FS plate reader.
# [2] = target: T4, monoamine oxidase B (MAO-B) (Homo sapiens, UniProt P27338); experiment: Amine oxidase activity assay (MAO-Glo), MAO-B; format: biochemical
# T4 construct: purchased Sigma M7441
# T4 sequence (P27338 1-520): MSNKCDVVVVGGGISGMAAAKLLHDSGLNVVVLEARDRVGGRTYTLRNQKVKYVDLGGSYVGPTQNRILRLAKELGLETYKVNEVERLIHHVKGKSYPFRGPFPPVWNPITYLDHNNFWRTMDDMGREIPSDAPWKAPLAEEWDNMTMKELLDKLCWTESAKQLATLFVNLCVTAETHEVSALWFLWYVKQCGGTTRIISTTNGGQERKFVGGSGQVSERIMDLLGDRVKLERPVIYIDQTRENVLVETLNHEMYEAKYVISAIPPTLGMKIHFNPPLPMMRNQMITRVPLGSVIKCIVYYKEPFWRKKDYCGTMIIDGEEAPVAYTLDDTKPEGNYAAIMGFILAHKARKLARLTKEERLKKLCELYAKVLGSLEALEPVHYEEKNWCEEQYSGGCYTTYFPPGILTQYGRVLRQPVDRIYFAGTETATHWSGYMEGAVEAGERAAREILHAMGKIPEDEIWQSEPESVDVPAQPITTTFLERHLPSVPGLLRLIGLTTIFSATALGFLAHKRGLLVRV
# Procedure: as §2, §3
# [3] = 20 min incubation with enzyme; read-out: LOXL2 IC50 a) 20 min
# [4] = 20 hr incubation with enzyme; read-out: LOXL2 IC50 c) 20 hr
# [5] = 1 hr incubation with enzyme; read-out: LOXL2 IC50 b) 1 hr
IC50 (LOXL2; [4]),Structure (SMILES),IC50 (LOX),other results
–,"CCOc1ccc(N2C[C@H]3CN(C(=O)c4ccc(S(=O)(=O)CCN)cc4)C[C@@H]2C(C)(C)C3)cc1 [Example 31, (4-((2-aminoethyl)sulfonyl)phenyl)((1S,5S)-6-(4-ethoxyphenyl)-9,9-dimethyl-3,6-diazabicyclo[3.2.2]nonan-3-yl)methanone]",96 µM,IC50 (LOXL2; [3]): 16 µM
–,"NCCS(=O)(=O)CCN1CCCN(c2ccc(N3CCS(=O)(=O)CC3)cc2)CC1 [Example 3, 4-(4-(4-(2-((2-aminoethyl)sulfonyl)ethyl)-1,4-diazepan-1-yl)phenyl) thiomorpholine-1,1-dioxide]",–,IC50 (LOXL2; [3]): 8.1 µM; IC50 [1]: > 100 µM; IC50 [2]: > 100 µM
0.48 µM,"CC1(C)C[C@@H]2CN(CCS(=O)(=O)CCN)C[C@H]1N(c1ccc(N3CCS(=O)(=O)CC3)cc1)C2 [Example 5, 4-(4-((1R,5S)-3-(2-((2-aminoethyl)sulfonyl)ethyl)-9,9-dimethyl-3,6-diazabicyclo[3.2.2]nonan-6-yl)phenyl)thiomorpholine 1,1-dioxide]",–,–
–,"CCOc1ccc(N2C[C@H]3CN(C(=O)C(C)S(=O)(=O)CCN)C[C@@H]2C(C)(C)C3)cc1 (mixture of isomers) [Example 39, 2-((2-aminoethyl)sulfonyl)-1-((1S,5S)-6-(4-ethoxyphenyl)-9,9-dimethyl-3,6-diazabicyclo[3.2.2]nonan-3-yl)propan-1-one]",10 µM,IC50 (LOXL2; [5]): 0.41 µM
0.94 µM,"CC1(C)C[C@@H]2CN(C(=O)CS(=O)(=O)CCN)C[C@H]1N(c1ccc(N3CCS(=O)(=O)CC3)cc1)C2 [Example 10, 2-((2-aminoethyl)-sulfonyl)-1-((1S,5S)-6-(4-(1,1-dioxido-thiomorpholino)-phenyl)-9,9-dimethyl-3,6-diaza-bicyclo[3.2.2]nonan-3-yl)ethan-1-one]",–,–
6.7 µM,"CC1(C)C[C@@H]2CN(C(=O)N3CCS(=O)(=O)CC3)C[C@H]1N(c1ccc(OCCCS(=O)(=O)CCN)cc1)C2 [Example 35, ((1S,5S)-6-(4-(3-((2-aminoethyl)sulfonyl)-propoxy)phenyl)-9,9-dimethyl-3,6-diaza-bicyclo[3.2.2]nonan-3-yl)(1,1-dioxido-thiomorpholino) methanone]",–,–
–,"CC1(C)C[C@@H]2CN(C(=O)C(F)S(=O)(=O)CCN)C[C@H]1N(c1ccc(N3CCS(=O)(=O)CC3)cc1)C2 (stereo partly drawn) [Example 17, 2-((2-aminoethyl)-sulfonyl)-1-((1S,5S)-6-(4-(1,1-dioxido-thiomorpholino)-phenyl)-9,9-dimethyl-3,6-diaza-bicyclo[3.2.2]nonan-3-yl)-2-fluoroethan-1-one]",–,IC50 (LOXL2; [5]): 0.11 µM
2.5 µM,"CCOc1ccc(N2C[C@H]3CN(CCCS(=O)(=O)CCN)C[C@@H]2C(C)(C)C3)cc1 [Example 6, 2-((3-((1R,5S)-6-(4-ethoxyphenyl)-9,9-dimethyl-3,6-diazabicyclo[3.2.2]nonan-3-yl)propyl)sulfonyl)ethan-1-amine]",58 µM,–

Structure (SMILES),IC50 (LOXL2; [4]),IC50 (LOX),other results
"CCOc1ccc(N2C[C@@H]3CC[C@H]2CN(C(=O)CS(=O)(=O)CCN)C3)cc1 [Example 9, 2-((2-aminoethyl)-sulfonyl)-1-((1S,5S)-6-(4-ethoxyphenyl)-3,6-diazabicyclo-[3.2.2]nonan-3-yl)-ethan-1-one]",0.34 µM,> 100 µM,–
"CC1(C)C[C@@H]2CN(C(=O)NCCO)C[C@H]1N(c1ccc(OCCCS(=O)(=O)CCN)cc1)C2 [Example 34, (1S,5S)-6-(4-(3-((2-aminoethyl)sulfonyl)propoxy)phenyl)-N-(2-hydroxyethyl)-9,9-dimethyl-3,6-diazabicyclo[3.2.2]nonane-3-carboxamide]",9.3 µM,–,–
"CCNC(=O)N1C[C@@H]2CN(c3ccc(OCCCS(=O)(=O)CCN)cc3)[C@H](C1)C(C)(C)C2 [Example 36, (1S,5S)-6-(4-(3-((2-aminoethyl)sulfonyl)propoxy)phenyl)-N-ethyl-9,9-dimethyl-3,6-diazabicyclo[3.2.2]nonane-3-carboxamide]",5.1 µM,4.5 µM,–
